Data from patent US20050196343A1, “Degradable nanoparticles” (Molecular Therapeutics, Inc., priority 2004, published 2005).

Tested on: intracerebral 9L gliomas
Experiment: In vivo therapy of glioma using Photofrin-containing nanoparticles with laser (diffusion MRI, Kaplan-Meier survival)
Parameters: species or system rat
Conditions: 9L tumor rats, tail vein administration, FIG. 17
From the text: Rats harboring intracerebral 9L gliomas, were allowed to grow to approximately 50 microliters in size, as quantitated using multi-slice T2-weighted MRI. Rats were divided into the following groups: sham (untreated); laser exposure only; intravenous administered photofrin (no nanoparticles); photofrin-encapsulated nanoparticles; and photofrin-encapsulated nanoparticles with F3 targeting (n=5/group). Diffusion MRI scans were obtained prior to treatment and every 2-3 days following treatment. Treatment with laser administration consisted of 750 mW of laser light administered at 630 nm for 7.5 minutes of total exposure time. This was accomplished through the same 1 mm diameter burr hole which was initially made to inject the 9L tumor cells to initiate tumor growth. The depth of the cylindrical laser tip was adjusted, based upon the MRI scan data, to be at the base of the tumor mass in order to optimize light delivery to the overall tumor mass. Diffusion MRI scans were acquired in order to assess in real time, the effectiveness of treatment. Increased diffusion values within the tumor mass reflect areas of cell kill (necrosis) and the magnitude of the increase is proportional to the level of cell killing. As shown in the MRI scans in FIG. 15, control diffusion tumor values are on average at approximately 100 apparent diffusion coefficient units (ADC).

Photofrin
survival times (Kaplan-Meier): no significant differences in survival times
